Test results published in paper PMC2813745, “A novel inhibitor of the PI3K/Akt pathway based on the structure of inositol 1,3,4,5,6-pentakisphosphate” (British Journal of Cancer, 2010).

What was measured:
[1] = system: MCF7; experiment: Cell survival by cell counting, MCF7; format: cell-based, human; settings: MCF7, 72 h, 20 nM 4-OH Tamoxifen, 50 μM 2-O-Bn-InsP5 alone or in combination
Method: Cells seeded in a 24-well plate were treated with the indicated compounds in serum free DMEM or DMEM containing 0.5% FBS (PC3). After 72 h, the number of surviving cells was assessed by manual cell counting or by using the cell counter CDA-500 (Sysmex, Milton Keynes, UK). Alternatively, after 48 h, the number of apoptotic cells was assessed by acridine orange/ethidium bromide assay as described ([Piccolo et al, 2004]; [Maffucci et al, 2005]). SRB test was carried out in SKOV-3 and PC3 seeded in 96-well plate (3800 cells per well or 5800 cells per well, respectively) after 72 h of treatment as described ([Cappella et al, 2001]).
Data are mean±s.e. of n=4 independent experiments carried out in duplicate. […] Data are mean±s.e. of n=5 independent experiments carried out in duplicate. […] Data are mean±s.e. of n=6 independent experiments carried out in duplicate. […] Data are mean±s.e. of n=2 independent experiments carried out in duplicate. In all cases (A–D), cells were treated for 72 h and the number of surviving cells was assessed by cell counting. […] In all cases (E, F), cells were treated for 72 h and the number of surviving cells was assessed by SRB assay and data are mean±s.e. of two experiments carried out in quadruplicate.

[2] = molecular target: T1, PDK1 (Homo sapiens, UniProt O15530); experiment: SelectScreen kinase profiling: PDK1; format: biochemical; settings: 1 µM compound; [ATP] 100 µM; single point
T1 sequence (O15530 1-556): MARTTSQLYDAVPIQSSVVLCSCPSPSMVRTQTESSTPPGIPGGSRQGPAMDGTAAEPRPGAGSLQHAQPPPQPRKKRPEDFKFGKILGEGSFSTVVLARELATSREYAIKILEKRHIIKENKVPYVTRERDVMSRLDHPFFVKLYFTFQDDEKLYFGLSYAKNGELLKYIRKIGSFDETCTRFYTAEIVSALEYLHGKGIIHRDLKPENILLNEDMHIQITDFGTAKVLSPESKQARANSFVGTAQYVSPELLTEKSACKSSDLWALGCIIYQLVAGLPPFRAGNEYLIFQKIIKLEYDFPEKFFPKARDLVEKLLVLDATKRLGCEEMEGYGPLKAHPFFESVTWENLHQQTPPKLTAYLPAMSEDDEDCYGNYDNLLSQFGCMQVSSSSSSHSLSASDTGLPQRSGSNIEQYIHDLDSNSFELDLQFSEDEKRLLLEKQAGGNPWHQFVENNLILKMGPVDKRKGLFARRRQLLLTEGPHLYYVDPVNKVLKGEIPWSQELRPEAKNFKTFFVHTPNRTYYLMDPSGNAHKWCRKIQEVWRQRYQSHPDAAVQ
Method: Effect of the indicated compounds on the activity of various kinases was assessed by SelectScreen Kinase Profiling Service (Invitrogen-Life Technologies, Paisley, UK). Assays were performed using 1 μM of the tested compounds and ATP concentration as indicated in the corresponding tables. In the case of […] a screen using 10 μM of the compound was also carried out, as indicated in the corresponding table.

| Compound | % Inhibition Mean [2] [%] | number of surviving cells [1] |
| --- | --- | --- |
| 4-hydroxy-tamoxifen [4-OH tamoxifen, reference compound] |  | reduced the number of surviving cells |
| O=P(O)(O)O[C@H]1[C@H](OP(=O)(O)O)[C@@H](OP(=O)(O)O)[C@H](OP(=O)(O)O)[C@@H](OP(=O)(O)O)[C@H]1OP(=O)(O)O [Ins(1,2,3,4,5,6)P6] | 18 |  |
| O=P(O)(O)O[C@@H]1[C@H](O)[C@H](O)[C@@H](OP(=O)(O)O)[C@H](OP(=O)(O)O)[C@H]1O [Ins(1,4,5)P3] | 17 |  |
| O=P(O)(O)O[C@H]1[C@H](OP(=O)(O)O)[C@@H](OP(=O)(O)O)[C@@H](O)[C@@H](O)[C@@H]1OP(=O)(O)O [Ins(1,4,5,6)P4] | 33 |  |

More lines, main results first:

| % Inhibition Mean [2] [%] | Compound | number of surviving cells [1] |
| --- | --- | --- |
| 56 | O=P(O)(O)O[C@H]1[C@H](O)[C@@H](OP(=O)(O)O)[C@H](OP(=O)(O)O)[C@@H](OP(=O)(O)O)[C@H]1O [Ins(1,3,4,5)P4] |  |
| 35 | O=P(O)(O)O[C@H]1[C@H](OP(=O)(O)O)[C@@H](OP(=O)(O)O)[C@@H](O)[C@@H](O)[C@@H]1OP(=O)(O)O [Ins(3,4,5,6)P4] |  |
